The values that follow are results of earlier work, collected in patent publication US6518456B1, “Process for the production of 1-(aminomethyl)-cyclohexyl-acetic acid in pure form” (Procos S.p.A., priority 2001, dated 2003).

Broadly, the LD50 is the dose expected to kill half of the subjects tested.

SMILES strings stand for the structures. Where only a bound is given, the exact number is not on record here.

For this data set the following is noted: extremely low toxicity; species and route not given.

Take `NCC1(CC(=O)O)CCCCC1` [Gabapentin, 1-(aminomethyl)cyclohexyl-acetic acid]: the LD50 is greater than 8000 mg/kg.
